{"source": "patent US20200397894A1", "about": "“COMPOSITIONS AND METHODS FOR TREATING CANCER” (University of Virginia Patent Foundation, priority 2016, published 2020)", "assay_type_in_all_cases": "cell-based, human", "key": {"[1]": {"test_system": "hTERT-transformed keratonocytes (OKF6-TERT2)", "test": "Rereplication by FACS in control keratinocytes", "procedure": "The effect of pevonedistat treatment or CDT2, geminin, or EMI1 knockdown on the cell cycle (and induction of DNA rereplication) was assessed by flow cytometry with propidium iodide (PI) staining. Cells were harvested at 72 or 96 hours post-treatment with pevonedistat or post-transfection, respectively. Cells were collected, washed with PBS, and resuspended in ethanol (75%). Cells were subsequently treated with 20 μg of DNase-free RNase and stained with PI following the manufacturer's protocol. FACSCAN™ (Becton, Dickinson and Company, Franklin Lakes, N.J., United States of America) was used to analyze the samples and G0-G1, S, and G2-M fractions were segmented. Subsequent analysis using FLOWJO® (FLOWJO, LLC, Ashland, Oreg., United States of America) and ModFit (Verity Software House, Topsham, Me., United States of America) software was used to determine apoptotic and re-replicating fractions. Where indicated, Cal27 and FaDu cells were treated with pevonedistat for 48 hours and pulsed with BrdU (10 nM) for 1 hour in the dark prior to harvesting. […] Sampled were analyzed on a FACSCAN™ (Becton, Dickinson and Company, Franklin Lakes, N.J., United States of America), and different fractions of BrdU positive cells were determined using FLOWJO® (FLOWJO, LLC, Ashland, Oreg., United States of America) and ModFit (Verity Software House, Topsham, Me., United States of America) software."}, "DM93 cells [2]": {"test_system": "DM93 cells", "test": "BrdU staining and flow cytometry (rereplication)", "details": "DM93, pevonedistat", "procedure": "The effects of pevonedistat and/or silencing of cell cycle-associated proteins on cell cycle distribution or rereplication were assessed by flow cytometry according to the manufacturer's instructions. Different melanoma lines were transfected with si-GL2, si-CDT2, si-CDT1, si-SET8, si-p21, or si-geminin for a time ranging from 24 to 96 hours. At the end of treatment, cells were pulsed with BrdU (10 nM) for 1 hour in the dark prior to harvesting. Cells were washed with PBS and staining solution before the fixation and permeabilization steps according to the manufacturer's instructions. Cells were subsequently stained with anti-BrdU antibody solution for 20 minutes at room temperature, washed, and stained with 7-AAD solution for 30 minutes at 4° C. The cells were resuspended in 1 ml of staining buffer and kept overnight at 4° C. before analysis. Samples were analyzed on a FFACSCAN™ (Becton, Dickinson and Company, Franklin Lakes, N.J., United States of America), and different phases of the cell cycle were determined using FLOWJO® (FLOWJO, LLC, Ashland, Oreg., United States of America) and ModFit (Verity Software House, Topsham, Me., United States of America) software."}, "VMM39 cells": {"test_system": "VMM39 cells", "test": "Clonogenic survival assay", "procedure": "(§1) Cell survival following CDT2 depletion or pevonedistat treatment was assessed by clonogenic survival assay, preformed in triplicates. 72 hours following transfection with si-GL2 or si-CDT2, cells were trypsinized, counted, and seeded in 60 mm dishes. For pevonedistat treatments, cells were counted and seeded in 60 mm dishes and treated 24 hours later with various doses of pevonedistat or with DMSO. Cells were cultured for two weeks and were subsequently washed in cold PBS, fixed in cold methanol for 10 minutes, and stained with crystal violet (0.5%) for 10 minutes. Plates were washed with water, dried, and pictures were captured using IMAGE LAB™ software (BioRad Laboratories, Inc., Hercules, Calif., United States of America). Quantification of colonies was performed using QUANTITY ONE® software (BioRad Laboratories, Inc., Hercules, Calif., United States of America). Results are represented as mean±s.e.m. of triplicates normalized to the corresponding DMSO-treated or si-GL2 transfected controls."}, "DM93 cells [3]": {"test_system": "DM93 cells", "test": "Clonogenic survival assay", "procedure": "as §1"}, "Cal27 cells": {"test_system": "Cal27 cells", "test": "Rereplication by propidium iodide staining and FACS (HNSCC)", "procedure": "The effect of pevonedistat treatment or CDT2, geminin, or EMI1 knockdown on the cell cycle (and induction of DNA rereplication) was assessed by flow cytometry with propidium iodide (PI) staining. […] Cells were collected, washed with PBS, and resuspended in ethanol (75%). Cells were subsequently treated with 20 μg of DNase-free RNase and stained with PI following the manufacturer's protocol. FACSCAN™ (Becton, Dickinson and Company, Franklin Lakes, N.J., United States of America) was used to analyze the samples and G0-G1, S, and G2-M fractions were segmented. Subsequent analysis using FLOWJO® (FLOWJO, LLC, Ashland, Oreg., United States of America) and ModFit (Verity Software House, Topsham, Me., United States of America) software was used to determine apoptotic and re-replicating fractions. Where indicated, Cal27 and FaDu cells were treated with pevonedistat for 48 hours and pulsed with BrdU (10 nM) for 1 hour in the dark prior to harvesting. Cells were washed with PBS and staining solution before fixation and permeabilization steps according to the manufacturer's protocol. Cells were subsequently stained with anti-BrdU antibody solution for 20 minutes at room temperature, washed, and stained with 7-AAD for 30 minutes at 4° C. Cells were resuspended in 1 ml of staining buffer and stored at 4° C. overnight before analysis. Sampled were analyzed on a FACSCAN™ (Becton, Dickinson and Company, Franklin Lakes, N.J., United States of America), and different fractions of BrdU positive cells were determined using FLOWJO® (FLOWJO, LLC, Ashland, Oreg., United States of America) and ModFit (Verity Software House, Topsham, Me., United States of America) software."}}}
{"smiles": "NS(=O)(=O)OCC1CC(n2ccc3c(NC4CCc5ccccc54)ncnc32)CC1O", "note": "[pevonedistat, ((1S,2S,4R)-4-(4-((1S)-2,3-Dihydro-H-inden-1-ylamino)-7H-pyrrolo(2,3-d)pyrimidin-7-yl)-2-hydroxycyclopentyl)methyl sulphamate]", "values": [{"measurement": "DNA rereplication", "setting": "[1]", "value": "not observed"}, {"measurement": "cells with rereplication within the same cell cycle (BrdU labeling)", "setting": "DM93 cells [2]; 24 hours", "value": 17.3, "unit": "%"}, {"measurement": "cells with rereplication within the same cell cycle (BrdU labeling)", "setting": "DM93 cells [2]; 48 hours", "value": 61.7, "unit": "%"}, {"measurement": "drug concentration inhibiting proliferation (clonogenic survival)", "setting": "VMM39 cells", "value": 50, "unit": "nM"}, {"measurement": "drug concentration inhibiting proliferation (clonogenic survival)", "setting": "DM93 cells [3]", "value": 100, "unit": "nM"}, {"measurement": "cells undergoing rereplication", "setting": "Cal27 cells; Cal27, 40 nM pevonedistat 48 hours plus 2 Gy at the 24 hour time point", "value": 32.9, "unit": "%"}, {"measurement": "cells undergoing rereplication", "setting": "Cal27 cells; Cal27, 40 nM pevonedistat for 48 hours", "value": 16.8, "unit": "%"}, {"measurement": "cells exhibiting >4N DNA content", "setting": "Cal27 cells; Cal27, 100 nM pevonedistat, PI staining", "value": 61, "unit": "%"}]}
